Data on 28 molecules can be found in US9447134B2 (priority 2012, dated 2016).

The target in data set [1] is T1, CpIMPDH (Cryptosporidium parvum, UniProt Q8T6T2).
T1 sequence (Q8T6T2 1-400): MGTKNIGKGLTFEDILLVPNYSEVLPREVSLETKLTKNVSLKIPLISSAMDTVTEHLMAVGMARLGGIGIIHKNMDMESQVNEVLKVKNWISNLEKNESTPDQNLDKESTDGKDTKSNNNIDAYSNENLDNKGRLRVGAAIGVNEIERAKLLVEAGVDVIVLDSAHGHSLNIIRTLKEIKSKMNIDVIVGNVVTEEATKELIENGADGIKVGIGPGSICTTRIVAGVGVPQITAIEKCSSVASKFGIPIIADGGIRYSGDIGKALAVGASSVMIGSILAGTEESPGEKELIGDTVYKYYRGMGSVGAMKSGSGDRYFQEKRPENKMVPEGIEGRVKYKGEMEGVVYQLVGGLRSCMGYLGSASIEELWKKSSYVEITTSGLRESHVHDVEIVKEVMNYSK

The target in data set [2] is B. anthracis IMPDH (Bacillus anthracis, UniProt A0A6L8P2U9). The experiment in a line: biochemical.
Sequence of B. anthracis IMPDH (A0A6L8P2U9 1-487): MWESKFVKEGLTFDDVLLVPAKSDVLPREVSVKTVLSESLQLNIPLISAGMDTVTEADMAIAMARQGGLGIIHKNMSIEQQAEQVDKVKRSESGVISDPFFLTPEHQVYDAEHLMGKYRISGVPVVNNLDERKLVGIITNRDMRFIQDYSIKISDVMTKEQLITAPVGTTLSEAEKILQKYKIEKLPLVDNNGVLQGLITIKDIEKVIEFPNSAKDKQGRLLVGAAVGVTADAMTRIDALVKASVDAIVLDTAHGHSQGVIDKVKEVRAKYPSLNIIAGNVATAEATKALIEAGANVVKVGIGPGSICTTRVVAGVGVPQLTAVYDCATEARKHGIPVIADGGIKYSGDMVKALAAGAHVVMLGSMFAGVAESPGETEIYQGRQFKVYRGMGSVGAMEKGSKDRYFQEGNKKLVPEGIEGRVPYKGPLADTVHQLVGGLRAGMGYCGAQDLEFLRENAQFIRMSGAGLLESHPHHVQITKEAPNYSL
The target of data set [3] is F. tularensis IMPDH (Francisella tularensis, UniProt Q5NFC2). In words: biochemical.
Sequence of F. tularensis IMPDH (Q5NFC2 1-486): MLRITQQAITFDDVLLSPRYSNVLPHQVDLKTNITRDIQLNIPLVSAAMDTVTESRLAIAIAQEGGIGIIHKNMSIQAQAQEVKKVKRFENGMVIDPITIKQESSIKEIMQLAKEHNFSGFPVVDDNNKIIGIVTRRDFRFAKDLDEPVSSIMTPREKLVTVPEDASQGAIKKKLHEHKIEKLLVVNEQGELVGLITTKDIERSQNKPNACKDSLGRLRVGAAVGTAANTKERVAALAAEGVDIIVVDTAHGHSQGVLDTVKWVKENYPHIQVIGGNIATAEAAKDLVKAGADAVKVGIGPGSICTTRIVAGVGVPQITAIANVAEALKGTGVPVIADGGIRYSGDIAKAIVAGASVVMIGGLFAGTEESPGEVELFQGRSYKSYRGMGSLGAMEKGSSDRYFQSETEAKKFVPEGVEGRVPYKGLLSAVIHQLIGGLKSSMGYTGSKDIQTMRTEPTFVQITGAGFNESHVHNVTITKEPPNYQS
Data set [4] relates to Cryptosporidium. The conditions noted are these: mouse models; cited from earlier work.
The conditions of data set [5]: mouse, in vivo; cited from earlier work.
A short description of data set [6]: Mouse liver microsomal stability.
Data set [7] addresses T1, CpIMPDH. The source holds these as a separate data set.
The target of data set [8] is T1, CpIMPDH. The experiment in a line: biochemical.
Data set [9] concerns Caco-2 cells. To be noted: cited from earlier work.
Data set [10] deals with C. parvum.

Take “N-(6,7,8,9-tetrahydrodibenzo[b,d]furan-5-yl)-2-(3-methyl-4-oxo-3,4-dihydro-phthalazin-1-yl)acetamide [Compound D67]”: in data set [1], the “CpIMPDH inhibitory activity (SAR, in words)” value (from here on “CpIMPDH inhibitory activity”) is listed as “enhanced potency”.
For orientation: IC50 means the concentration that gives 50% inhibition. Higher therefore signals weaker potency. As to `C=C(C)c1cccc(C(C)(C)NC(=O)Nc2ccc3c(c2)OCCO3)c1` [Compound P113], the values for the IC50 in data set [2] and in [3] were 110 nM and 41 nM, respectively.
In the case of `Cn1nc(CC(=O)Nc2ccc3[nH]c4ccccc4c3c2)c2ccccc2c1=O` [Compound D70, N-(9H-carbazol-3-yl)-2-(3-methyl-4-oxo-3,4-dihydrophthalazin-1-yl)acetam-de], the “CpIMPDH inhibitory activity” value in data set [1] was “not active”.
`CC(=O)Oc1ccccc1C(=O)Nc1ncc([N+](=O)[O-])s1` [nitazoxanide]: in [4], the “in vivo anticryptosporidial efficacy (literature, in words)” value was “little to no efficacy”. The “systemic distribution / oral bioavailability (literature, in words)” value in data set [5] was “systemically distributed”.
A word on the melting point: it is the temperature, or range, at which the solid turns liquid. `C=C(C)c1cccc(C(C)(C)NC(=O)Nc2ccc(Cl)c(Cl)c2)c1` [Compound 5h, 1-(3,4-Dichlorophenyl)-3-(2-(3-(prop-1-en-2-yl)phenyl)propan-2-yl)urea] returned a melting point of 198 to 200 °C.
Turning to `CC(=NOC(C)(C)C)c1cccc(C(C)(C)NC(=O)Nc2ccc(Cl)c(C(F)(F)F)c2)c1` [Compound P114], the 50% inhibitory concentration (IC50) in data set [2] amounted to 56 nM; in [3], 6900 nM.
As for `CC1(c2cccc(CNC(=O)Nc3ccc(Cl)cc3)c2)OCCO1` [Compound 22, 1-(4-Chlorophenyl)-3-(3-(2-methyl-1,3-dioxolan-2-yl)benzyl)urea], the “half-life in mouse liver microsomes” value in data set [6] (37° C., absence of NADPH) is “quite stable”; in data set [6] (37° C., presence of NADPH), 25 min.
As for `Cn1nc(CC(=O)Nc2ccc(Cl)c(C(F)(F)F)c2)c2ccccc2c1=O`, in data set [6] (presence or absence of NADPH not given), the “half-life in mouse liver microsomes” value worked out at 79 min. The “inhibition mechanism with respect to NAD+” value in data set [7] was “pure noncompetitive inhibitor”. Moreover, in [7] (read-out: Kis, with respect to NAD+), the Ki worked out at 3.4 ± 0.2 nM.
Consider `C[C@H](Sc1cccc(Cl)c1Cl)C(=O)Nc1ccc2oc(-c3ccncc3)nc2c1` [Compound Q75], for which the concentration for half-maximal inhibition (IC50) was 151 nM in data set [2] and 192 nM in data set [3].
`C=C(C)c1cccc(C(C)(C)NC(=O)Nc2ccc(Cl)c(C(=O)O)c2)c1` [Compound P138]: the IC50 in data set [2] amounted to 67 nM; in data set [3], 120 nM.
`C=C(C)c1cccc(C(C)(C)NC(=O)Nc2ccc3ccccc3n2)c1` [Compound 5t, 1-(2-(3-(prop-1-en-2-yl)phenyl)propan-2-yl)-3-(quinolin-2-yl)urea] registered a melting point of 126 to 128 °C.
`Cc1cc2cc(NC(=O)Cc3nn(C)c(=O)c4ccccc34)ccc2o1` [Compound D62, N-(2-methylbenzofuran-5-yl)-2-(3-methyl-4-oxo-3,4-dihydrophthalazin-1-yl)-acetamide] yielded an IC50 in [8] of 70 nM.
Regarding `C[C@H](Oc1cccc(Cl)c1Cl)C(=O)Nc1ccc2nc(-c3cncs3)oc2c1` [Compound Q64, (S)-2-(2,3-dichlorophenoxy)-N-(2-(thiazol-5-yl)benzo[d]oxazol-6-yl) propanamide], the results for the half-inhibitory concentration (IC50) in data set [2] and in data set [3] were 203 nM and 93.7 nM, respectively.
Consider `CCn1c2ccccc2c2cc(NC(=O)Cc3nn(C)c(=O)c4ccccc34)ccc21` [Compound D71, N-(9-ethyl-9H-carbazol-3-yl)-2-(3-methyl-oxo-3,4-dihydrophthalazin-1-yl) acetamide], for which, in data set [1], the “CpIMPDH inhibitory activity” value was “not active”.
In the case of `Cn1nc(CC(=O)Nc2ccc(Br)c(C(F)(F)F)c2)c2ccccc2c1=O` [Compound D45], the half-inhibitory concentration (IC50) in data set [3] came out at 270 nM.
Turning to `Cn1nc(CC(=O)Nc2ccc3ocnc3c2)c2ccccc2c1=O` [Compound D64, N-(benzo[d]oxazol-5-yl)-2-(3-methyl-4-oxo-3,4-dihydrophthalazin-1-yl)acetamide], the “CpIMPDH inhibitory activity” value in data set [1] is “inactive”.
In the case of `O=c1[nH]c(=O)n([C@H]2C[C@H](O)[C@@H](CO)O2)cc1C(F)(F)F` [Trifluoromethylthymidine], in [4], the “in vivo anticryptosporidial efficacy (literature, in words)” value is “significant anticryptosporidial activity”.
As for `C[C@H](Nc1cccc(Cl)c1Cl)C(=O)Nc1ccc2oc(-c3ccncc3)nc2c1` [Compound Q67, (S)-2-(2,3-dichlorophenylamino)-N-(2-(pyridine-4-yl)benzo[d]oxazol-5-yl)propanamide], the half-inhibitory concentration (IC50) in data set [2] came to 26.8 nM; in data set [3], 27.1 nM.
Molecule `C=C(C)c1cccc(C(C)(C)NC(=O)Nc2ccc3ccccc3c2)c1` [Compound 5o, 1-(Naphthalen-2-yl)-3-(2-(3-(prop-1-en-2-yl)phenyl)propan-2-yl)urea] showed a melting point of 201 to 203 °C.
For the molecule `Cn1nc(CC(=O)Nc2ccc3c(c2)oc2ccccc23)c2ccccc2c1=O` [Compound D72, N-(dibenzo[b,d]furan-3-yl)-2-(3-methyl-4-oxo-3,4-dihydrophthalazin-1-yl)acetamide], in [1], the “CpIMPDH inhibitory activity” value was “not active”.
Regarding `NC[C@@H]1O[C@H](O[C@H]2[C@@H](O)[C@H](O[C@@H]3[C@@H](O)[C@H](N)C[C@H](N)[C@H]3O[C@H]3O[C@H](CO)[C@@H](O)[C@H](O)[C@H]3N)O[C@@H]2CO)[C@H](N)[C@@H](O)[C@@H]1O` [Paromomycin, paromomycin], the “accumulation in Caco-2 cells (in words)” value in data set [9] was “high accumulation”. The “systemic distribution / oral bioavailability (literature, in words)” value in data set [5] is on record as “poor oral bioavailability”. Further, the “range of reduction of fecal oocysts over experiments” value in data set [10] (paromomycin 2000 mg/kg daily oral gavage) is reported as 73-99%. The “average reduction of fecal oocysts” value in data set [10] (paromomycin 2000 mg/kg daily oral gavage, average of experiments) was 89%. The “reduction of fecal oocysts, multiple daily dose regime” value in data set [10] (three daily doses (P131 3×83 mg/kg), 10,000 oocysts, counted day 4 post-infection) was 88-95%.
Molecule `C/C(=N\O)c1cccc(C(C)(C)NC(=O)Nc2ccc(Cl)c(C(F)(F)F)c2)c1` [Compound 7a, (E)-1-(4-Chloro-3-(trifluoromethyl)phenyl)-3-(2-(3-(1-(hydroxyimino)ethyl)phenyl)propan-2-yl)urea] had a melting point of 194 to 196 °C.
In the case of `Cn1nc(CC(=O)Nc2ccc(Cl)c(F)c2)c2ccccc2c1=O` [Compound D52], the midpoint of inhibition in data set [2], the IC50, lay at 900 nM.
Regarding `C/C(=N\OC(C)(C)C)c1cccc(C(C)(C)NC(=O)Nc2ccc(Cl)c([N+](=O)[O-])c2)c1` [Compound P127], the IC50 was 94 nM in data set [2] and 1800 nM in data set [3].
Regarding `CC(NC(=O)c1ccc2oc(-c3ccncc3)nc2c1)c1ccccc1` (stereo not drawn) [Compound Q63], the IC50 in data set [2] and in [3] was 200000 nM each time.
On to `CC(=O)c1cccc(C(C)(C)OC(=O)Nc2ccc(Cl)cc2)c1` [Compound P112], for which the half-maximal inhibitory concentration (IC50) worked out at 520 nM in data set [2] and 390 nM in data set [3].
Consider `C/C(=N\O)c1cccc(C(C)(C)NC(=O)Nc2ccc3cccnc3c2)c1` [Compound 7e, (E)-1-(2-(3-(1-(Hydroxyimino)ethyl)phenyl)propan-2-yl)-3-(quinolin-7-yl)urea], for which the melting point lay in the range of 164 to 166 °C.
The same measure, in the same setting: in the case of `C=C(C)c1cccc(C(C)(C)NC(=O)Nc2ccccc2)c1` [Compound 5a, 1-Phenyl-3-(2-(3-(prop-1-en-2-yl)phenyl)propan-2-yl)urea] it was 188 to 190 °C.
